Assay results taken from US10888549B2, “Pharmaceutical agents targeting cancer stem cells” (THE JOHNS HOPKINS UNIVERSITY, priority 2016, dated 2021).

Legend:
SOX2 = SOX2 expression by western blotting / flow cytometry; assay type: cell-based, human; settings: basal-type cells
Description: (§1) Whole cell lysates were extracted using RIPA buffer (Thermo Scientific) supplemented with 10 μL/mL Halt™ Protease Inhibitor Cocktail Kit (Life Technologies) and 30 μL/mL Halt™ Phosphatase Inhibitor Cocktail Kit (Life Technologies). The protein concentrations were determined using a Pierce™ BCA Protein Assay Kit (Life Technologies), and the protein were separated on NuPAGE® 4-12% Bis-Tris Gel (Life Technologies) according to the manufacturer's protocol. COX2 (D5H5), NANOG (D73G4), OCT4 (D7O5Z), CD133 (A3G6K), Snail (C15D3), ZEB1 (D80D3), Vimentin (D21H3), CDH2 (D4R1H), CDH1 (24E10), p-EGFR (D7A5), EGFR (D38B1), p-AKT (D9E), AKT (cat #, 9272), p-ERK (D13.14.4E), ERK (137F5), p-YAP1 (D9W2I), p-Src (cat #, 2101), Src (36D10), DNMT1 (D63A6), DNMT3A (D23G1), and DNMT3B (D7O7O) antibodies were obtained from Cell Signaling Technology (Danvers, Mass., USA), except for SOX2 (EPR3131; Abcam, Cambridge, USA), YAP1 (ab52771; Abcam), CD24 (cat #, AF5247-SP; R&D Systems, Minneapolis USA) and β-actin (A2228; Sigma-Aldrich). Secondary horseradish peroxidase (HRP)-conjugated antibodies were obtained from Cell Signaling Technology, and chemiluminescent detection of HRP-labeled antibodies was performed using Amersham ECL Prime Western Blotting Detection Reagent (GE Healthcare, Piscataway, USA). As loading control, β-actin was used.
For extracellular staining, cells (1×10^6/100 μL stain buffer) were incubated with PE-Vio770-conjugated anti-human CD133 (293C3; Miltenyi Biotec, Auburn, USA) or PE-conjugated anti-human CD24 antibody (cat #, 560991; BD Biosciences) for 30 min at 4° C. in dark. PE-Vio770-conjugated Isotype (cat #, 130-098-563; Miltenyi Biotec) and PE-conjugated IgG2a, κ Isotype (cat #, 555574; BD Biosciences) were used as control for CD133 and CD24 staining, respectively. Staining for intracellular SOX2 was carried out using the BD Cytofix/Cytoperm Fixation/Permeabilization Kit (BD Biosciences) according to manufacturer's protocol. The cells were incubated with Alexa Fluor 647-conjugated anti-SOX2 antibody (cat #, 560302; BD Biosciences) for 40 min at 4° C. in dark. Alexa Fluor 647-conjugated anti-IgG2a, κ Isotype (cat #, 558053; BD Biosciences) was used as control. Data were acquired on a BD FACSCalibur flow cytometer (BD Biosciences) using BD CellQuest Pro software (BD Biosciences) and analyzed with FlowJo software v10.1 (Tree Star, Ashland, USA).

EGFR-MAPK signaling = test: Western blotting in xenograft tumors that acquired resistance to erlotinib; assay type: in vivo, mice; settings: xenograft tumors with acquired resistance to EGFR inhibitor
Description: (§2) Whole cell lysates were extracted using RIPA buffer (Thermo Scientific) supplemented with 10 μL/mL Halt™ Protease Inhibitor Cocktail Kit (Life Technologies) and 30 μL/mL Halt™ Phosphatase Inhibitor Cocktail Kit (Life Technologies). […] Secondary horseradish peroxidase (HRP)-conjugated antibodies were obtained from Cell Signaling Technology, and chemiluminescent detection of HRP-labeled antibodies was performed using Amersham ECL Prime Western Blotting Detection Reagent (GE Healthcare, Piscataway, USA). As loading control, β-actin was used.
For celecoxib and/or VP treatment, celecoxib (5 mg/kg) was administered via intraperitoneal (i.p.) injection once a day (17), and VP (50 mg/kg) was administered via i.p. every other day (18). […] For GEM and CDDP (GC) treatment (i.p.), CDDP (6 mg/kg) was only applied after the first GEM (60 mg/kg) treatment on day 2, followed by three consecutive treatments of GEM on day 5, 8 and 11 (17). The next cycle was started on day 18, and the treatment was continued until tumor reached 2 cm in diameter. For erlotinib treatment, the mice were treated once a day, 6 days per week, by oral gavage with erlotinib (100 mg/kg) or control (PBS containing 0.5% methyl cellulose (Sigma-Aldrich) and 0.1% TWEEN 80) (20). Tumor size was measured at least every three days. […]

[1] = system: AKT and extracellular signal-related kinase (ERK); test: Western blotting of AKT and ERK activation; assay type: cell-based, human; settings: basal-type cells; 1 μM erlotinib
Description: as §1

COX2 = COX2 expression by western blotting; assay type: cell-based, human
Description: as §2

YAP1 = YAP1 expression by western blotting; assay type: cell-based, human
Description: as §1

urothelial CSCs = test: Sphere formation assay (CSC properties); assay type: cell-based, human; settings: basal-type cells; 1 μM erlotinib for 72 hours
Description: Sphere formation was induced by culturing cells (2×10^4/well) in DMEM/Ham's F12 50/50 Mix (Mediatech) supplemented with B-27 (Life Technologies), 20 ng/mL FGF-basic (Peprotech), 20 ng/mL EGF (Peprotech). Cell culture was performed in ultra-low attachment 6 well plates (Corning, Lowell, USA) for 10 days. The medium was replaced every other day. Sphere formation was evaluated using the inverted phase-contrast microscope, and single sphere with a diameter larger than 100 μm was counted using NIS-Elements Microscope Imaging Software. To redifferentiate spheres, spheres were plated in standard growth medium with 10% FBS in dishes supporting cell attachment, and incubated for 7 days. For self-renewal assay, primary spheres were collected by gentle centrifugation (5 min at 400×g), dissociated with Stempro Accutase Cell Dissociation Reagent (Life Technologies), and mechanically disrupted with a pipette. The cell suspension was sieved through 40 μm cell strainer cap filter to achieve a single-cell suspension, and then equal numbers of alive cells were plated in ultralow attachment plates to generate the second spheres. Again, spheres were counted on day 14 and digested to generate the third Spheres. All the experiments were performed in triplicate and repeated at least three times.

For `C#Cc1cccc(Nc2ncnc3cc(OCCOC)c(OCCOC)cc23)c1` [erlotinib, Erlotinib], the SOX2 expression (SOX2) was “decreased at 1 hour after treatment with erlotinib and then gradually increased”, the EGFR-MAPK signaling (EGFR-MAPK signaling) was “remained suppressed” and the “activation of AKT and extracellular signal-related kinase (ERK)” value [1] was “suppressed activation”. The COX2 expression (COX2; basal-type cells) was “increased”, the COX2 expression (COX2; non-basal-type cells) was “did not affect” and the YAP1 expression (YAP1; basal-type cells) was “continuously decreased”. The YAP1 expression (YAP1; non-basal-type cells) was “did not affect” and the number of spheres (urothelial CSCs) was “enriched number of spheres”.
